Assay [1] has as its target Fibroblast growth factor receptor 4 (Homo sapiens, UniProt P22455). The experiment in a line: Selectivity interaction (Kinase panel (Z-LYTE Assay)) EUB0001632a FGFR4. The note with it: at 10 µM.
Assay [2] addresses Cyclin-dependent kinase 4/cyclin D1 (Homo sapiens, UniProt P11802). The experiment in a line: Selectivity interaction (Competition-binding assay (DiscoverX)) EUB0001632a CDK4. Type of assay: protein-complex assay.
The target in assay [3] is Protein arginine N-methyltransferase 7 (Homo sapiens, UniProt Q9NVM4). The experiment in a line: Selectivity interaction (Scintillation proximity assays) EUB0000255b PRMT7.
The target of assay [4] is T1, 3-phosphoinositide-dependent protein kinase 1 (Homo sapiens) (UniProt O15530).
T1 sequence (whole entry): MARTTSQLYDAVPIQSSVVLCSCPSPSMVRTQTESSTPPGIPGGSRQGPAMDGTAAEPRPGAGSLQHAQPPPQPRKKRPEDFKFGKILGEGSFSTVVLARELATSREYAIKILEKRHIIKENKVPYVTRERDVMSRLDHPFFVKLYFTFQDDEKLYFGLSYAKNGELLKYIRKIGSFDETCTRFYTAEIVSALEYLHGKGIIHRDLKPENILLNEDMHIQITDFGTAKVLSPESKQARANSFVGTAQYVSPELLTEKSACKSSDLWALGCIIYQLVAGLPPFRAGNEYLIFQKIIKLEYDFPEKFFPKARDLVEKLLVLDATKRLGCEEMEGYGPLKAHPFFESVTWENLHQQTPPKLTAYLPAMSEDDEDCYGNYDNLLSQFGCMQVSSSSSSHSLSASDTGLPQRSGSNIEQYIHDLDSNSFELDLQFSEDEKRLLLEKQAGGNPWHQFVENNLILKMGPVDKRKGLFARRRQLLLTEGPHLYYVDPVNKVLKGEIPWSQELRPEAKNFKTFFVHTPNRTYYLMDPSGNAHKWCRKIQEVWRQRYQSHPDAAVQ
The note with it: at 10 µM.

In assay [5] the target is Ribosomal protein S6 kinase alpha-2 (Homo sapiens) (UniProt Q15349). The experiment in a line: Selectivity interaction (KinomeScan (DiscoverX)) EUB0000695a RPS6KA2. The conditions noted are these: at 100 nM.
The target in assay [6] is Phosphatidylinositol 4-kinase beta (Homo sapiens, UniProt Q9UBF8). The experiment in a line: Selectivity interaction (KinomeScan (DiscoverX)) EUB0000695a PI4KB. The note with it: at 100 nM.
Assay [7] deals with Interferon-induced, double-stranded RNA-activated protein kinase (Homo sapiens) (UniProt P19525). Kind of assay: Selectivity interaction (ActivX KiNativ screen (kinase selectivity in THP-1 cell lysates)) EUB0000639a EIF2AK2. The format is subcellular. The note with it: lysate, at 0.01 µM.
Assay [8] concerns the target Non-receptor tyrosine-protein kinase TYK2 (Homo sapiens, UniProt P29597). The experiment in a line: Selectivity interaction (ActivX KiNativ screen (kinase selectivity in THP-1 cell lysates)) EUB0000639a TYK2. The conditions noted are these: lysate, at 0.04 µM. The format is subcellular.
The target in assay [9] is Serine/threonine-protein kinase B-raf (Homo sapiens) (UniProt P15056). Kind of assay: (§1) Selectivity interaction (KinomeScan (DiscoverX)) EUB0000045b BRAF.
The test system of assay [10] is Serine/threonine-protein kinase B-raf (Homo sapiens), P15056 [V600E]. Described as §1.
Assay [11] addresses Mitogen-activated protein kinase 14 (Homo sapiens, UniProt Q16539). Kind of assay: Selectivity interaction (KinomeScan (DiscoverX)) EUB0000045b MAPK14.
Assay [12] concerns the target T2, Dual specificity protein kinase TTK (Homo sapiens) (UniProt P33981).
T2 sequence (whole entry): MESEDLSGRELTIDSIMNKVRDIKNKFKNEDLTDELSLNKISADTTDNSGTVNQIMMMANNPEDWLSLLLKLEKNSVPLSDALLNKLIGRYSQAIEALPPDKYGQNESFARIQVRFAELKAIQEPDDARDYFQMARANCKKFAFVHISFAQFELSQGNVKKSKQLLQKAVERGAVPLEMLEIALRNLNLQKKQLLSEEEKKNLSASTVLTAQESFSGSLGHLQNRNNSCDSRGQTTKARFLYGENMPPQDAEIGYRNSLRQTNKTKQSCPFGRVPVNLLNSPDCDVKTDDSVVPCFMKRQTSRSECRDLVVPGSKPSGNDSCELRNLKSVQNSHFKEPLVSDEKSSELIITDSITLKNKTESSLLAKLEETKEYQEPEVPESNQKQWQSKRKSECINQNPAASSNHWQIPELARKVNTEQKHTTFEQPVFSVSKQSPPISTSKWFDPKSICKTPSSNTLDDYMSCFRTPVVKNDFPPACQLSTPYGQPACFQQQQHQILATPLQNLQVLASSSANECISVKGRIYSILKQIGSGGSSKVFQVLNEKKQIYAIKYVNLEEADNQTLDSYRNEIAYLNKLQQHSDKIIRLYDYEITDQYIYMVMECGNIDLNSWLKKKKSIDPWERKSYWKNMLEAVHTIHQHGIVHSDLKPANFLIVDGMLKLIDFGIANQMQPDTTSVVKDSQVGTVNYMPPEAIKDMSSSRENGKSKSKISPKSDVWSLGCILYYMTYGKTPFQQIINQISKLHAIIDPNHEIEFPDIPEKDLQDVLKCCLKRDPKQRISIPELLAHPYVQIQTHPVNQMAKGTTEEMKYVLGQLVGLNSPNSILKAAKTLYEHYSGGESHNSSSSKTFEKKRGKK
Kind of assay: Selectivity interaction (Kinase panel (literature)) EUB0001199aCl TTK. The conditions noted are these: at 1 µM.

The target of assay [13] is Bone morphogenetic protein receptor type-1A (Homo sapiens, UniProt P36894). Kind of assay: Selectivity interaction (ProQinase) EUB0000171b BMPR1A.
The target of assay [14] is Hepatocyte growth factor receptor (Homo sapiens, UniProt P08581). The experiment in a line: Selectivity interaction (Kinase panel (Enzyme activity assay)) EUB0000612a MET.
Assay [15] deals with Cyclin-dependent kinase inhibitor 2A (Homo sapiens, UniProt P42771). The experiment in a line: Selectivity interaction (Kinase panel (33PanQinase(R) Activity Assay)) EUB0000877a CDKN2A.
Assay [16] addresses Chromatin remodeling regulator CECR2 (Homo sapiens, UniProt Q9BXF3). The experiment in a line: Selectivity interaction (Bromodomain panel (DSF asssay)) EUB0000270b CECR2.
Assay [17] has as its target 3',5'-cyclic-AMP phosphodiesterase 4D (Homo sapiens) (UniProt Q08499). Kind of assay: Selectivity interaction (Panel of non-epigenetic targets (kinases, GPCRs, ion channels, and transporters, Eurofins) ) EUB0000271b PDE4D. The conditions noted are these: at 1 µM.
Assay [18] concerns Tyrosine-protein kinase ABL1 (Homo sapiens), P00519 [H396P]. Kind of assay: Selectivity interaction (KinomeScan (DiscoverX)) EUB0001079a ABL1. The note with it: at 1 µM.
Assay [19] deals with Ribosomal protein S6 kinase alpha-5 (Homo sapiens) (UniProt O75582). The experiment in a line: Selectivity interaction (KinomeScan (DiscoverX)) EUB0000229b RPS6KA5. The conditions noted are these: at 10 µM.
Assay [20] concerns the target Serine/threonine-protein kinase 38-like (Homo sapiens) (UniProt Q9Y2H1). The experiment in a line: Selectivity interaction (KinomeScan (DiscoverX)) EUB0000229b STK38L. The conditions noted are these: at 10 µM.

Each structure is given as a SMILES string. Bounds are passed on as bounds.

Sequence of Serine/threonine-protein kinase B-raf (Homo sapiens) (P15056 whole entry): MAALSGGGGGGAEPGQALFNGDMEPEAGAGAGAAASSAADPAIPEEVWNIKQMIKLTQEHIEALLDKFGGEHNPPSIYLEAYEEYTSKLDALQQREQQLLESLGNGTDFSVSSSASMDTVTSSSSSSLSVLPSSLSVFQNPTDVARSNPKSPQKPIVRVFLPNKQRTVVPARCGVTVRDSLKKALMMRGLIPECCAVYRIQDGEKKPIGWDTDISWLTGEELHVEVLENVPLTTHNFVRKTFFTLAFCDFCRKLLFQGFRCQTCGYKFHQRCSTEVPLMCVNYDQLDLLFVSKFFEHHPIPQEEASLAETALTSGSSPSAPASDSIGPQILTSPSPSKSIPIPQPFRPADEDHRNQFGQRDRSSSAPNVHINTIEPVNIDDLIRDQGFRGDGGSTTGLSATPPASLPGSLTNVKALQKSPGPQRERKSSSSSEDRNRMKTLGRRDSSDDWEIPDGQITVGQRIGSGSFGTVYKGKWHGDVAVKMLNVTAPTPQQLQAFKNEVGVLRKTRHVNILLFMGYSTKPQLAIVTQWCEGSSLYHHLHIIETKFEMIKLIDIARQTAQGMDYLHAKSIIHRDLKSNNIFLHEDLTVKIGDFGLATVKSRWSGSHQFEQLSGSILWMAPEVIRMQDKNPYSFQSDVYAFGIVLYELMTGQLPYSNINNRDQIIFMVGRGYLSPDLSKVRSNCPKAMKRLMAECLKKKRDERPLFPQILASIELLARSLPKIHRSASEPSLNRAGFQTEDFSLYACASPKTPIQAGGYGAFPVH
Sequence of Serine/threonine-protein kinase B-raf (Homo sapiens), P15056 [V600E] (P15056 whole entry V600E): as the sequence (P15056 whole entry) above, with V600E counted along it
Sequence of Bone morphogenetic protein receptor type-1A (P36894 whole entry): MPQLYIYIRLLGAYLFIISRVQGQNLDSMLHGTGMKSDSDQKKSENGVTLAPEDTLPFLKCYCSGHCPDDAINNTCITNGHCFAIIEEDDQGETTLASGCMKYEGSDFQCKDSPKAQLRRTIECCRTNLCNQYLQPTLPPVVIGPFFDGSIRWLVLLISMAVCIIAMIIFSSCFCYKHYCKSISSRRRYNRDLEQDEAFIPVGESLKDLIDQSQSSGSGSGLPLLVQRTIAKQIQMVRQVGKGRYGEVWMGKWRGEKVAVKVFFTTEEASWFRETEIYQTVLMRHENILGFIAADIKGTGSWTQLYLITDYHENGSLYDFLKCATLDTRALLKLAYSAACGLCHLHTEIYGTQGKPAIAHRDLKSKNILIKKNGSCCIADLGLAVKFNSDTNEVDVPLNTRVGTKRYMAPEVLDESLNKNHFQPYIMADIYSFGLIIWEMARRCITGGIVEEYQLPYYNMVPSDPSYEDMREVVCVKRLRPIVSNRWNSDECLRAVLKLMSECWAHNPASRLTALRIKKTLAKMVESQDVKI
Sequence of Mitogen-activated protein kinase 14 (Q16539 whole entry): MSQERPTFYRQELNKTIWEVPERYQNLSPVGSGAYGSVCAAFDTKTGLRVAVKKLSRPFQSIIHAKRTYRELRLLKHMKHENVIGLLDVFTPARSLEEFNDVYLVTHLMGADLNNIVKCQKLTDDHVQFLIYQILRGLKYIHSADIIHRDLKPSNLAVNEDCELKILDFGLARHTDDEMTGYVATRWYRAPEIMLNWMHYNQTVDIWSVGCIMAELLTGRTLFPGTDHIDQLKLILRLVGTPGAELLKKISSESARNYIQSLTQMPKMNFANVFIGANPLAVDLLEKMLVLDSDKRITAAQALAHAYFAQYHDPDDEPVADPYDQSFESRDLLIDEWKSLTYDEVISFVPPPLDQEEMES
Sequence of Fibroblast growth factor receptor 4 (P22455 22-802 limits assumed): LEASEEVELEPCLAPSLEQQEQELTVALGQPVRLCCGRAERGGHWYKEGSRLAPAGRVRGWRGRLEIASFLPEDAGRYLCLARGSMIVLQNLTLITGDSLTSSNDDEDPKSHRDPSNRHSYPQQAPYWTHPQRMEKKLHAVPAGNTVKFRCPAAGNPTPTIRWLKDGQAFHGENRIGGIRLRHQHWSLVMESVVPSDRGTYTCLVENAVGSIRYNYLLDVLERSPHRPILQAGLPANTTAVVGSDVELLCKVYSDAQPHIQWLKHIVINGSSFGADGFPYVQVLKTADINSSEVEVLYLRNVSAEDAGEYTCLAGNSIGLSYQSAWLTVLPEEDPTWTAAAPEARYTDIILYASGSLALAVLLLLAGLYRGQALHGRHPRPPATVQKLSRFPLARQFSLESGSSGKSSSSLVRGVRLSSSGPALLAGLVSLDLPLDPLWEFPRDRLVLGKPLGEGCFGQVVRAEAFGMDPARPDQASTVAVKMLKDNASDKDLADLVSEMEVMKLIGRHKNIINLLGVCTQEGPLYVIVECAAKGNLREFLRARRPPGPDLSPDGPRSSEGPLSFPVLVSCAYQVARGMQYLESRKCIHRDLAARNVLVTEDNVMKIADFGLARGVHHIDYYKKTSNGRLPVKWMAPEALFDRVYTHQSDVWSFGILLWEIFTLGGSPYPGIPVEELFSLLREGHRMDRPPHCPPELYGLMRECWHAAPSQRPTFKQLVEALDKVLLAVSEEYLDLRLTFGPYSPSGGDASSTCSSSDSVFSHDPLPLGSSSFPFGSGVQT
Sequence of Chromatin remodeling regulator CECR2 (Q9BXF3 whole entry, looked up): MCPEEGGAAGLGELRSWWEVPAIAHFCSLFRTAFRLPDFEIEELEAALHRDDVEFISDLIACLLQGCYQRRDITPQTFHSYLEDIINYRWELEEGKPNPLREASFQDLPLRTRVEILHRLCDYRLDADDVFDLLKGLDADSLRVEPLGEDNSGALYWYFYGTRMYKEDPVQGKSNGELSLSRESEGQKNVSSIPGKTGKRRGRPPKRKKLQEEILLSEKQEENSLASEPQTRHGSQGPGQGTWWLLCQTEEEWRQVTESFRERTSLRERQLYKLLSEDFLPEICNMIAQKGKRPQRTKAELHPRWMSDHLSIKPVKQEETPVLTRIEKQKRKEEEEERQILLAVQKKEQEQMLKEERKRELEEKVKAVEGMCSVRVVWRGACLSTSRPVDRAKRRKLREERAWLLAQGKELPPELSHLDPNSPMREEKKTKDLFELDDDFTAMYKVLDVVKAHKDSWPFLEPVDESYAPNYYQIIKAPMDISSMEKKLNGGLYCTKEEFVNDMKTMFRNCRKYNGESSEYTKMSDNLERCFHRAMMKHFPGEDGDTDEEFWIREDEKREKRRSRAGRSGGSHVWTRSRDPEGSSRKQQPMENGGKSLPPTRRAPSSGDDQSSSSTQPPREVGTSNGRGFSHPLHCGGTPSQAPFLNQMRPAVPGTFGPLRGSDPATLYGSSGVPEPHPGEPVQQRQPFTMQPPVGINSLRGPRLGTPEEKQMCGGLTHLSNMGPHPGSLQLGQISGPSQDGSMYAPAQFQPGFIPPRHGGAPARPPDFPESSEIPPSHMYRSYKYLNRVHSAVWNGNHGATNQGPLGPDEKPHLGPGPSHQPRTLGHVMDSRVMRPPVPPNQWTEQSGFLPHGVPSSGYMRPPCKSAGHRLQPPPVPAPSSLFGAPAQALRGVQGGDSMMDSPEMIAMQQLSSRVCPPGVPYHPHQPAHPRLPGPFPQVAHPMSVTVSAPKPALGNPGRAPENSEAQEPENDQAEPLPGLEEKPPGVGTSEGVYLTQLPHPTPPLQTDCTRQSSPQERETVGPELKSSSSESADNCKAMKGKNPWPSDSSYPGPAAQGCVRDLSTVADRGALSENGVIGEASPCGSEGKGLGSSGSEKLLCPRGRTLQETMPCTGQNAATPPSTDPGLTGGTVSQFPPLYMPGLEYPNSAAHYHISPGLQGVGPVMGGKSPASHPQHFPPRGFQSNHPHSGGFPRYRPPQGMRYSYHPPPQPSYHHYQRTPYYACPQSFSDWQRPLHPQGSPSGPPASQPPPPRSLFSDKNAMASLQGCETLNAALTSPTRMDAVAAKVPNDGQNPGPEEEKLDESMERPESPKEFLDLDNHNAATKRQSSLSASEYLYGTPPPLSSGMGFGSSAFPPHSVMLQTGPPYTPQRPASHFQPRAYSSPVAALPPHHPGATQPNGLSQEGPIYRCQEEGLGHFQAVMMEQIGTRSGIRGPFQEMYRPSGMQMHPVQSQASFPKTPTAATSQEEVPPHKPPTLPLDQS
Sequence of Ribosomal protein S6 kinase alpha-2 (Homo sapiens) (Q15349 whole entry): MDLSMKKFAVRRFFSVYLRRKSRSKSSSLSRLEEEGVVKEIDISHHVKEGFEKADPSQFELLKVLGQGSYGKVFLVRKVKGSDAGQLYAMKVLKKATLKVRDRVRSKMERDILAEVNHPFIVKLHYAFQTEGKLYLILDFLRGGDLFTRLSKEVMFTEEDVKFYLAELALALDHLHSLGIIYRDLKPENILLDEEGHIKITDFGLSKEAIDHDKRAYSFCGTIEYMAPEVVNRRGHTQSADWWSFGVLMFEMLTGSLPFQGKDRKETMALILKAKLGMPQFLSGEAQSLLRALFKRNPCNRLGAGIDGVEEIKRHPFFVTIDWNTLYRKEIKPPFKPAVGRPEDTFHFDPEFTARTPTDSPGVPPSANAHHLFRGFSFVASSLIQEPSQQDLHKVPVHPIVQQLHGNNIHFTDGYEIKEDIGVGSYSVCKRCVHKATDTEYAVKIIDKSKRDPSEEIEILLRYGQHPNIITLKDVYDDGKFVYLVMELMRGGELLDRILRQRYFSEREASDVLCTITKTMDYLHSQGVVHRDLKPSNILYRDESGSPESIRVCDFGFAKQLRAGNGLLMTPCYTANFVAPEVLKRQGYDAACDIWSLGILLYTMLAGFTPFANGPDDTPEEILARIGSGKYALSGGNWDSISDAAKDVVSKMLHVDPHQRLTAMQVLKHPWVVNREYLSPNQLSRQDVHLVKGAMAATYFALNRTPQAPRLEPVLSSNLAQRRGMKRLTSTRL
Sequence of Cyclin-dependent kinase inhibitor 2A (P42771 whole entry): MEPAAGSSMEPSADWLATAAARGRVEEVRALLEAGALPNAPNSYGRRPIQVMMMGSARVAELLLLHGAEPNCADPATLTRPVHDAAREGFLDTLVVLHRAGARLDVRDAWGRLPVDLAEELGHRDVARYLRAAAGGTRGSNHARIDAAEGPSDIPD

As for `Cn1cc(-n2cnc3c(NCc4nc5cc(Cl)c(Cl)cc5[nH]4)nc(N4CCOCC4)nc32)cn1`, the % of control in [1] is 3.57%. In assay [2], the Kd is more than 10 µM.

In the case of `COCCN1CCC(c2cc(CN(C)C(=O)c3cccc(Oc4ccccc4)c3)ccn2)CC1`, the IC50 in [3] is more than 10 µM. The molecule `CCN(CC)CCCCNc1ncc2cc(-c3cc(OC)cc(OC)c3)c(NC(=O)NC(C)(C)C)nc2n1` had a % of control in assay [4] of 100%. On to `Cc1cc(F)c(C(=O)Nc2cccc(-c3nncn3C(C)C)n2)cc1-n1cnc(C2CC2)c1`, for which the % of control was 73% in [5] and 100% in assay [6]. In the case of `CC[C@@H]1[C@H](F)C(=O)N[C@@H]1COc1nccc2cc(C(N)=O)c(OC)cc12` [ZIMLOVISERTIB], the % of inhibition is -1.7% in assay [7] and 6.4% in assay [8]. Take `C=CC(=O)Nc1cc(-n2c(=O)ccc3cnc4ccc(-c5ccc(NS(C)(=O)=O)cc5)cc4c32)ccc1C`: the % of control stood at 100% in assay [9] (at 1 µM); 100% in assay [9] (at 10 µM); 100% in assay [10] (at 1 µM); 100% in [10] (at 10 µM); 98% in [11] (at 1 µM); 100% in assay [11] (at 10 µM). With `CN1Cc2nccc(-c3cn(C)nc3-c3ccc(F)cc3)c2C1=O`, the % of inhibition in assay [12] was -3%. Turning to `C=CC(=O)Nc1cccc(C(=O)Nc2ccc(Nc3cc(-c4[nH]c(SC)nc4C)ccn3)cc2)c1`, the % of control amounted to 83% in [13] (at 1 µM) and 88% in assay [13] (at 5 µM).

In the case of `CCc1cccc(CC)c1NC(=O)c1nn(C)c2c1CCc1cnc(Nc3ccc(C(=O)NC4CCN(C)CC4)cc3OC(F)(F)F)nc1-2`, the IC50 in assay [14] was more than 10 µM. `CCC(=O)N1CC[C@H](Nc2ncnc3c2CN(c2cnc(OC)c(C(F)(F)F)c2)CC3)C1` [LENIOLISIB] displayed an IC50 in assay [15] of more than 10 µM.

For the molecule `Cc1cc(CN)cc(C)c1-c1ncn(C)c1-c1cncn1C`, the dTM in [16] was -0.68 K.

`Cc1cc(C)cc([C@@H]2c3cc(C)ccc3NC(=O)CN2C(=O)c2ccc(Br)s2)c1`: the % of inhibition in [17] was -12%.

In assay [18], `Nc1cnc(N2CCc3cc(S(=O)(=O)Nc4c(F)cc(Cl)cc4F)cc(N4CCCC4=O)c32)nc1` [TP-020n] yielded a % of control of 86%. For the molecule `COc1cc(N(C)c2ccnc3ccc(C(F)(F)F)cc23)cc(OC)c1OC`, the % binding in assay [19] was 85%; in assay [20], 87%.

The values are drawn from ChEMBL document CHEMBL5465560, “Selectivity Literature for EUbOPEN Chemogenomic Library” (2024).
